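Tested at 5 concentrations; 48 h exposure; 96-well plates; endpoints linearly interpolated, else capped at highest concentration. GI50 marks 50% less growth. Definition used: TGI = concentration required for complete inhibition of growth.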
What was measured:
Experiment in all cases: NCI-60 cell line screen, 48 h
[1] = tested on: MOLT-4 leukemia
[2] = tested on: NCI-H226 lung
[3] = tested on: NCI-H23 lung
[4] = tested on: NCI-H460 lung
[5] = tested on: NCI-H522 lung
[6] = tested on: NCI/ADR-RES ovarian
[7] = tested on: OVCAR-3 ovarian
[8] = tested on: OVCAR-4 ovarian
[9] = tested on: OVCAR-5 ovarian
[10] = tested on: OVCAR-8 ovarian
[11] = tested on: PC-3 prostate
[12] = tested on: RPMI-8226 leukemia
[13] = tested on: RXF 393 renal
[14] = tested on: SF-268 CNS
[15] = tested on: SF-295 CNS
[16] = tested on: SF-539 CNS
[17] = tested on: SK-MEL-28 melanoma
[18] = tested on: SK-MEL-5 melanoma
[19] = tested on: SK-OV-3 ovarian
[20] = tested on: SN12C renal
[21] = tested on: SNB-19 CNS
[22] = tested on: SR leukemia
[23] = tested on: SW-620 colon
[24] = tested on: T-47D breast
[25] = tested on: TK-10 renal
[26] = tested on: U251 CNS
[27] = tested on: UACC-62 melanoma

Q: `C[C@H]1[C@@H](CC(=O)N[C@@H](Cc2coc3ccccc23)B(O)O)O[C@@H]2OC3(C)CC[C@H]4[C@H](C)CC[C@@H]1[C@@]24OO3` was tested. Which GI50 [1] did it give?
A: 267 nM

Q: And the TGI [1]?
A: 3540 nM

Q: And the GI50 [2]?
A: 876 nM

Q: What about the TGI [2] of the same compound?
A: 2140 nM

Q: What about the GI50 [3] of the same compound?
A: 1620 nM

Q: And the TGI [3]?
A: 7440 nM

Q: And the GI50 [4]?
A: 2460 nM

Q: What about the TGI [4] of the same compound?
A: 12000 nM

Q: And the GI50 [5]?
A: 493 nM

Q: And the TGI [5]?
A: 1810 nM

Q: And the GI50 [6]?
A: 8060 nM

Q: What about the TGI [6] of the same compound?
A: 37200 nM

Q: And the GI50 [7]?
A: 1260 nM

Q: And the TGI [7]?
A: 5180 nM

Q: What about the GI50 [8] of the same compound?
A: 2600 nM

Q: And the TGI [8]?
A: 68500 nM

Q: What about the GI50 [9] of the same compound?
A: 1650 nM

Q: What about the TGI [9] of the same compound?
A: 7120 nM

Q: What about the GI50 [10] of the same compound?
A: 2080 nM

Q: And the TGI [10]?
A: 11700 nM

Q: What about the GI50 [11] of the same compound?
A: 1190 nM

Q: And the TGI [11]?
A: 18800 nM

Q: What about the GI50 [12] of the same compound?
A: 267 nM

Q: And the TGI [12]?
A: 1420 nM

Q: And the GI50 [13]?
A: 259 nM

Q: What about the TGI [13] of the same compound?
A: 1120 nM

Q: What about the GI50 [14] of the same compound?
A: 3040 nM

Q: What about the TGI [14] of the same compound?
A: > 71000 nM

Q: And the GI50 [15]?
A: 1980 nM

Q: And the TGI [15]?
A: 7690 nM

Q: And the GI50 [16]?
A: 1050 nM

Q: And the TGI [16]?
A: 2470 nM

Q: What about the GI50 [17] of the same compound?
A: 1200 nM

Q: What about the TGI [17] of the same compound?
A: 3630 nM

Q: What about the GI50 [18] of the same compound?
A: 1130 nM

Q: What about the TGI [18] of the same compound?
A: 2220 nM

Q: What about the GI50 [19] of the same compound?
A: 3550 nM

Q: And the TGI [19]?
A: 13400 nM

Q: And the GI50 [20]?
A: 2180 nM

Q: What about the TGI [20] of the same compound?
A: 10600 nM

Q: What about the GI50 [21] of the same compound?
A: 3430 nM

Q: What about the TGI [21] of the same compound?
A: > 71000 nM

Q: And the GI50 [22]?
A: 143 nM

Q: And the TGI [22]?
A: 677 nM

Q: What about the GI50 [23] of the same compound?
A: 362 nM

Q: And the TGI [23]?
A: 10200 nM

Q: What about the GI50 [24] of the same compound?
A: 749 nM

Q: What about the TGI [24] of the same compound?
A: 3030 nM

Q: What about the GI50 [25] of the same compound?
A: 1640 nM

Q: What about the TGI [25] of the same compound?
A: > 71000 nM

Q: And the GI50 [26]?
A: 2140 nM

Q: And the TGI [26]?
A: 10500 nM

Q: What about the GI50 [27] of the same compound?
A: 1060 nM

Q: And the TGI [27]?
A: 2230 nM
